PubChem BioAssay AID248 (DTP/NCI, 2004)
Toxic doses and inconclusive results are not listed. Rule as the data show it: active = T/C of 150% or more; inactive = T/C below 125%.

Tested on: L1210 leukemia ip in BDF1 mice, survival T/C
Experiment: NCI In Vivo Anticancer Drug Screen. Data for tumor model L1210 Leukemia (intraperitoneal) in B6D2F1 (BDF1) mice
Conditions: endpoint: mean survival time, higher = longer survival
Procedure, shortened: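 Tumor cells were implanted, animals were treated, and survival was followed. The result divides the treated measurement by the vehicle-control measurement.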

[1] = dose: 100.0 mg/kg/injection, schedule: Q04DX003 (ip), vehicle: saline with Tween-80
[2] = dose: 200.0 mg/kg/injection, schedule: Q04DX003 (ip), vehicle: saline with Tween-80
[3] = dose: 400.0 mg/kg/injection, schedule: Q04DX003 (ip), vehicle: saline with Tween-80
[4] = dose: 100.0 mg/kg/injection, schedule: Q01DX001 (ip), vehicle: carboxymethylcellulose (CMC)
[5] = dose: 200.0 mg/kg/injection, schedule: Q01DX001 (ip), vehicle: carboxymethylcellulose (CMC)
[6] = dose: 400.0 mg/kg/injection, schedule: Q01DX001 (ip), vehicle: carboxymethylcellulose (CMC)
[7] = dose: 100.0 mg/kg/injection, schedule: Q04DX003 (ip), vehicle: saline
[8] = dose: 200.0 mg/kg/injection, schedule: Q04DX003 (ip), vehicle: saline
[9] = dose: 400.0 mg/kg/injection, schedule: Q04DX003 (ip), vehicle: saline
[10] = dose: 100.0 mg/kg/injection, schedule: Q01DX009 (ip), vehicle: Klucel (hydroxypropylcellulose) (HPC)
[11] = dose: 200.0 mg/kg/injection, schedule: Q01DX009 (ip), vehicle: Klucel (hydroxypropylcellulose) (HPC)
[12] = dose: 400.0 mg/kg/injection, schedule: Q01DX009 (ip), vehicle: Klucel (hydroxypropylcellulose) (HPC)
[13] = dose: 100.0 mg/kg/injection, schedule: Q01DX001 (ip), vehicle: saline with Tween-80
[14] = dose: 200.0 mg/kg/injection, schedule: Q01DX001 (ip), vehicle: saline with Tween-80
[15] = dose: 100.0 mg/kg/injection, schedule: Q01DX001 (ip), vehicle: Klucel (hydroxypropylcellulose) (HPC)
[16] = dose: 100.0 mg/kg/injection, schedule: Q04DX003 (ip), vehicle: Klucel (hydroxypropylcellulose) (HPC)
[17] = dose: 200.0 mg/kg/injection, schedule: Q01DX001 (ip), vehicle: Klucel (hydroxypropylcellulose) (HPC)
[18] = dose: 200.0 mg/kg/injection, schedule: Q04DX003 (ip), vehicle: Klucel (hydroxypropylcellulose) (HPC)
[19] = dose: 400.0 mg/kg/injection, schedule: Q01DX001 (ip), vehicle: Klucel (hydroxypropylcellulose) (HPC)
[20] = dose: 400.0 mg/kg/injection, schedule: Q04DX003 (ip), vehicle: Klucel (hydroxypropylcellulose) (HPC)
[21] = dose: 100.0 mg/kg/injection, schedule: Q01DX001 (ip), vehicle: saline
[22] = dose: 200.0 mg/kg/injection, schedule: Q01DX001 (ip), vehicle: saline
[23] = dose: 400.0 mg/kg/injection, schedule: Q01DX001 (ip), vehicle: saline

Measured: T/C

O=S1c2ccccc2S(=O)c2ccccc21 (configuration not stated)
inactive: [1] 96 % of control | [2] 91 % of control | [3] 89 % of control

COc1ccc(/C=N/N2CCN(/N=C/c3ccc(OC)cc3)CC2)cc1
inactive: [4] 88 % of control | [5] 88 % of control | [6] 93 % of control

CC(=O)C(N=Nc1nn[nH]n1)C(C)=O
inactive: [7] 104 % of control | [8] 93 % of control | [9] 96 % of control

O=C1OC(c2ccc([N+](=O)[O-])cc2)=N/C1=C\c1ccc(O)cc1
inactive: [10] 96 % of control | [11] 96 % of control | [12] 90 % of control

CN(C)C=NCCNc1ccc([N+](=O)[O-])cn1
inactive: dose: 50.0 mg/kg/injection, schedule: Q01DX009 (ip), vehicle: saline with Tween-80 100 % of control | [13] 98 % of control | dose: 100.0 mg/kg/injection, schedule: Q01DX009 (ip), vehicle: saline with Tween-80 100 % of control | [14] 95 % of control

O=C(Nc1cccc(F)c1)N(CC(O)c1ccccc1)C1CCCCC1 (configuration not stated)
inactive: [10] 114 % of control | [11] 100 % of control | [12] 97 % of control

S=C(NCc1ccccc1)[S][Sn]([S]C(=S)NCc1ccccc1)([c]1ccccc1)[c]1ccccc1
inactive: dose: 5.0 mg/kg/injection, schedule: Q01DX001 (ip), vehicle: steriod suspending solution 98 % of control | dose: 10.0 mg/kg/injection, schedule: Q01DX001 (ip), vehicle: steriod suspending solution 97 % of control | dose: 20.0 mg/kg/injection, schedule: Q01DX001 (ip), vehicle: steriod suspending solution 106 % of control

CCOC(=O)CCc1c(C(=O)O)[nH]c(C(=O)OCC)c1C
inactive: dose: 25.0 mg/kg/injection, schedule: Q04DX003 (ip), vehicle: Klucel (hydroxypropylcellulose) (HPC) 102 % of control | dose: 50.0 mg/kg/injection, schedule: Q04DX003 (ip), vehicle: Klucel (hydroxypropylcellulose) (HPC) 107 % of control | [15] 98 % of control | [16] 102 % of control | [17] 97 % of control | [18] 93 % of control | [19] 97 % of control | [20] 101 % of control

Nc1nc(=O)n(CCCOc2ccc([N+](=O)[O-])c(Cl)c2)cc1-c1ccc(Cl)c(Cl)c1
inactive: dose: 25.0 mg/kg/injection, schedule: Q01DX001 (ip), vehicle: saline with Tween-80 95 % of control | dose: 50.0 mg/kg/injection, schedule: Q01DX001 (ip), vehicle: saline with Tween-80 96 % of control | [13] 88 % of control

CCC(C(C)C)C1NC1C(C)C1CCC2C3CC=C4CC(OC(C)=O)CCC4(C)C3CCC12C (configuration not stated)
inactive: dose: 100.0 mg/kg/injection, schedule: Q04DX003 (sc), vehicle: steriod suspending solution 105 % of control | dose: 200.0 mg/kg/injection, schedule: Q04DX003 (sc), vehicle: steriod suspending solution 103 % of control | dose: 400.0 mg/kg/injection, schedule: Q04DX003 (sc), vehicle: steriod suspending solution 97 % of control

CC(=O)Nc1ccc2c(=O)cc[nH]c2n1
inactive: dose: 50.0 mg/kg/injection, schedule: Q01DX001 (ip), vehicle: saline 89 % of control | [21] 93 % of control | [22] 106 % of control | [23] 95 % of control

NC(=O)NNC(O)(C(F)(F)F)C(F)(F)F
inactive: [4] 103 % of control | [5] 108 % of control

O=C(c1ccccc1)C(Br)C(c1ccccc1)c1ccccc1 (configuration not stated)
inactive: [10] 94 % of control | [16] 104 % of control | [11] 94 % of control | [18] 104 % of control | [12] 100 % of control | [20] 98 % of control

COC1OC(CCl)C(OS(C)(=O)=O)C(OC(=O)c2ccccc2)C1OC(=O)c1ccccc1 (configuration not stated)
inactive: dose: 25.0 mg/kg/injection, schedule: Q04DX002 (ip), vehicle: Klucel (hydroxypropylcellulose) (HPC) 102 % of control | dose: 50.0 mg/kg/injection, schedule: Q04DX002 (ip), vehicle: Klucel (hydroxypropylcellulose) (HPC) 97 % of control | dose: 100.0 mg/kg/injection, schedule: Q04DX002 (ip), vehicle: Klucel (hydroxypropylcellulose) (HPC) 102 % of control

Cc1c(CCO)c(=O)n2n1CCCC2
inactive: dose: 75.0 mg/kg/injection, schedule: Q01DX001 (ip), vehicle: other 108 % of control | dose: 150.0 mg/kg/injection, schedule: Q01DX001 (ip), vehicle: other 100 % of control

C=CCc1ccc(OC(C)=O)c(OC)c1
inactive: [21] 96 % of control | [22] 98 % of control | [23] 108 % of control

COc1cc(N(CCCl)CCCl)ccc1/C=N/Nc1nncn1N
inactive: dose: 50.0 mg/kg/injection, schedule: Q01DX001 (ip), vehicle: carboxymethylcellulose (CMC) 101 % of control | [4] 98 % of control | [5] 110 % of control | [6] 104 % of control

CN(C)C1(Cc2ccc(Cl)cc2)c2ccccc2-c2ccccc21
inactive: dose: 100.0 mg/kg/injection, schedule: Q01DX009 (ip), vehicle: other 94 % of control | dose: 100.0 mg/kg/injection, schedule: Q04DX003 (ip), vehicle: other 105 % of control | dose: 200.0 mg/kg/injection, schedule: Q01DX009 (ip), vehicle: other 98 % of control | dose: 200.0 mg/kg/injection, schedule: Q04DX003 (ip), vehicle: other 100 % of control | dose: 400.0 mg/kg/injection, schedule: Q01DX009 (ip), vehicle: other 104 % of control | dose: 400.0 mg/kg/injection, schedule: Q04DX003 (ip), vehicle: other 115 % of control

CC1(CCI)NC(=O)NC1=O (configuration not stated)
inactive: [15] 98 % of control | [17] 104 % of control | [19] 111 % of control

Cc1cccc2c1NC(C)C2C (configuration not stated)
inactive: dose: 100.0 mg/kg/injection, schedule: Q01DX009 (ip), vehicle: saline 102 % of control | [7] 96 % of control | dose: 200.0 mg/kg/injection, schedule: Q01DX009 (ip), vehicle: saline 98 % of control | [8] 93 % of control | dose: 400.0 mg/kg/injection, schedule: Q01DX009 (ip), vehicle: saline 98 % of control | [9] 93 % of control

O=C(C=C(C(F)(F)F)C(F)(F)F)c1ccccc1[N+](=O)[O-]
inactive: dose: 6.25 mg/kg/injection, schedule: Q01DX009 (ip), vehicle: other 96 % of control | dose: 12.5 mg/kg/injection, schedule: Q01DX009 (ip), vehicle: other 102 % of control | dose: 25.0 mg/kg/injection, schedule: Q01DX009 (ip), vehicle: other 102 % of control

CCC#CC(O)(C(=O)OCC)C1CCCCC1 (configuration not stated)
inactive: dose: 100.0 mg/kg/injection, schedule: Q01DX001 (ip), vehicle: other 104 % of control | dose: 200.0 mg/kg/injection, schedule: Q01DX001 (ip), vehicle: other 96 % of control | dose: 400.0 mg/kg/injection, schedule: Q01DX001 (ip), vehicle: other 104 % of control

Clc1ccc(SCC#CCOc2ccc(Cl)cc2Cl)cc1
inactive: [15] 89 % of control | [17] 95 % of control | [19] 97 % of control

O=C1CCCN1Cl
inactive: [13] 96 % of control | [14] 96 % of control | dose: 400.0 mg/kg/injection, schedule: Q01DX001 (ip), vehicle: saline with Tween-80 96 % of control

S=c1nc[nH]c2c1N=CNN2
inactive: dose: 5.0 mg/kg/injection, schedule: Q01DX001 (ip), vehicle: carboxymethylcellulose (CMC) 115 % of control | dose: 10.0 mg/kg/injection, schedule: Q01DX001 (ip), vehicle: carboxymethylcellulose (CMC) 90 % of control | dose: 20.0 mg/kg/injection, schedule: Q01DX001 (ip), vehicle: carboxymethylcellulose (CMC) 101 % of control | dose: 40.0 mg/kg/injection, schedule: Q01DX001 (ip), vehicle: carboxymethylcellulose (CMC) 96 % of control

COc1cc(/C=N/Nc2ccc([N+](=O)[O-])cc2)cc(OC)c1OC
inactive: [1] 86 % of control | [2] 89 % of control | [3] 86 % of control

COCCN1CCC(CO)C1 (configuration not stated)
inactive: [21] 93 % of control | [22] 98 % of control | [23] 93 % of control
